According to patent US10968222B2, “2-azabicyclo hexane JAK inhibitor compound” (THERAVANCE BIOPHARMA R&D IP, LLC, priority 2018, dated 2021):

Experiments:
[1] = system: IL-13 induced STAT6 phosphorylation in BEAS-2B human lung epithelial cells; assay: Inhibition of IL-13 stimulated pSTAT6 in BEAS-2B cells; assay type: cell-based; details: AlphaScreen, read-out: pIC50, inhibition of IL-13 stimulated pSTAT6 (converted)
Protocol: The AlphaScreen JAKI cellular potency assay was carried out by measuring interleukin-13 (IL-13, R&D Systems) induced STAT6 phosphorylation in BEAS-2B human lung epithelial cells (ATCC). The anti-STAT6 antibody (Cell Signaling Technologies) was conjugated to AlphaScreen acceptor beads (Perkin Elmer), while the anti-pSTAT6 (pTyr641) antibody (Cell Signaling Technologies) was biotinylated using EZ-Link Sulfo-NHS-Biotin (Thermo Scientific).
BEAS-2B cells were grown at 37° C. in a 5% CO2 humidified incubator in 50% DMEM/50% F-12 medium (Life Technologies) supplemented with 10% FBS (Hyclone), 100 U/mL penicillin, 100 μg/mL streptomycin (Life Technologies), and 2 mM GlutaMAX (Life Technologies). On day 1 of the assay, cells were seeded at a 7,500 cells/well density in white poly-D-lysine-coated 384-well plates (Corning) with 25 μL medium, and were allowed to adhere overnight in the incubator. […] After a minimum of 2 h incubation, the assay plates were read on the EnVision plate reader. AlphaScreen luminescence signals were recorded and utilized to calculate the percent inhibition values based on DMSO and background controls.
For dose-response analysis, percent inhibition data were plotted vs. compound concentrations, and IC50 values were determined from a 4-parameter robust fit model with the Prism software. Results may also be expressed as the negative logarithm of the IC50 value, pIC50.

PLK4 = biological target: T1, PLK4 (Homo sapiens, UniProt O00444); assay: Kinome screen, PLK4; assay type: binding; details: screened at 1 μM
T1 construct: made in house; host or cells: E. coli BL21-derived host (T7 phage) or HEK-293 cells
Protocol: Compounds 1 and C-1 were screened against other kinases to evaluate their selectivity profile.
Kinase-tagged T7 phage strains were grown in parallel in 24-well blocks in an E. coli host derived from the BL21 strain. E. coli were grown to log-phase and infected with T7 phage from a frozen stock (multiplicity of infection=0.4) and incubated with shaking at 32° C. until lysis (90-150 minutes). The lysates were centrifuged (6,000×g) and filtered (0.2 μm) to remove cell debris. The remaining kinases were produced in HEK-293 cells and subsequently tagged with DNA for qPCR detection.
Streptavidin-coated magnetic beads were treated with biotinylated small molecule ligands for 30 minutes at room temperature to generate affinity resins for kinase assays. The liganded beads were blocked with excess biotin and washed with blocking buffer (SeaBlock (Pierce), 1% BSA, 0.05% Tween 20, 1 mM DTT) to remove unbound ligand and to reduce non-specific phage binding. Binding reactions were assembled by combining kinases, liganded affinity beads, and test compounds in 1× binding buffer (20% SeaBlock, 0.17×PBS, 0.05% Tween 20, 6 mM DTT). Test compounds were prepared as 40× stocks in 100% DMSO and directly diluted into the assay. All reactions were performed in polypropylene 384-well plates in a final volume of 0.04 ml. […] The kinase concentration in the eluates was measured by qPCR. […]

T1 sequence (O00444 whole entry): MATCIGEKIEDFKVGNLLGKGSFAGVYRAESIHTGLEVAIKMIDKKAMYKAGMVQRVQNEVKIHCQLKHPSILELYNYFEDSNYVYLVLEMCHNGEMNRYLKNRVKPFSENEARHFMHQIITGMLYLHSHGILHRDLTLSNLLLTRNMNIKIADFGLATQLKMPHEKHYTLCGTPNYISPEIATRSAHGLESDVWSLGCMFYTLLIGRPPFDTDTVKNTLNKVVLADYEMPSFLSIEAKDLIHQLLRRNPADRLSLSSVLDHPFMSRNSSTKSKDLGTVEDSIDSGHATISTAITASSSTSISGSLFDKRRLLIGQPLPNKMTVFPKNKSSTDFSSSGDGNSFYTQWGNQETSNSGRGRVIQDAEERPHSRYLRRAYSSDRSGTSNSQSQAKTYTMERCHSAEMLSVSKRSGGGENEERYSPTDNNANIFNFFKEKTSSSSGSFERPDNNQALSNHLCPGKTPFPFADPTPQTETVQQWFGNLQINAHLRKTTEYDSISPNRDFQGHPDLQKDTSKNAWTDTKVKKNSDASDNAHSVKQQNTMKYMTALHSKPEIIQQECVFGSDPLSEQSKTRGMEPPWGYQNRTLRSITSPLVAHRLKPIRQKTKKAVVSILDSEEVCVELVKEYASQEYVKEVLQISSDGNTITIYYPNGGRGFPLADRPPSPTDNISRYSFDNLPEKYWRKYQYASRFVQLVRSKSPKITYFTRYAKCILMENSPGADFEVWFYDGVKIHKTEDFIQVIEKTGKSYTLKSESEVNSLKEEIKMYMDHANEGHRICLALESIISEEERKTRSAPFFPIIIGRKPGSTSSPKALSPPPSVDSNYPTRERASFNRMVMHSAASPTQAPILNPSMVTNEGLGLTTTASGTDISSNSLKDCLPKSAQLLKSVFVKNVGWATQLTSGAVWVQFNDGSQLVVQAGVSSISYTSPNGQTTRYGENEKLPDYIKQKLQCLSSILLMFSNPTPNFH

SMILES: CCc1cc(O)c(F)cc1-c1cc(F)c2c(-c3nc4c([nH]3)CCN(C(=O)[C@]35C[C@H]3CCN5)C4)n[nH]c2c1 [Compound 1, (1S,5R)-2-azabicyclo[3.1.0]hexan-1-yl(2-(6-(2-ethyl-5-fluoro-4-hydroxyphenyl)-4-fluoro-1H-indazol-3-yl)-6,7-dihydro-3H-imidazo[4,5-c]pyridin-5(4H)-yl)methanone]
- IC50 [1]: 10 nM
- inhibition at 1 µM (PLK4): 39%
